Test system: human coronary artery smooth muscle cells (hCaSMC)
Assay: 3H-thymidine uptake proliferation assay, hCaSMC
Type: cell-based
Conditions: Homo sapiens, 3 h; read-out: hCaSMC IC50 Mean ± SEM
Method: Experiments were performed to investigate interactions between zotarolimus and the corticosteroid dexamethasone. The effect of dexamethasone on the antiproliferative activity of zotarolimus in human coronary artery smooth muscle ([…]) and endothelial […] determined using an in vitro proliferation assay. The proliferation and migration of vascular smooth muscle cells into the vascular neointima is a characteristic pathologic response seen in restenotic lesions (A. Lafont and P. Libby, The smooth muscle cell: sinner or saint in restenosis and the acute coronary syndromes? […] As a result, in vitro assays which specifically measure the antiproliferative activity of candidate anti-restenotic compounds on human coronary artery smooth muscle and endothelial cells should predict potential anti-restenotic activity in vivo. The tritium incorporation assay is an accurate and sensitive method used in the art to determine cell number and proliferation. Compounds or combinations of compounds which attenuate growth factor-mediated human coronary artery smooth muscle cell […]) proliferation, as measured by the tritium incorporation assay in vitro, are candidate anti-restenotic agents. […] Cell proliferation was monitored by following incorporation of ^3H-thymidine into newly synthesized DNA of cells stimulated by serum and growth factors. Exponentially growing […] were seeded into 96-well flat bottom tissue culture plates at 5,000 cells/well (10,000 cells/well for […]). The cells were allowed to attach overnight. The growth medium was removed the following day and cells were washed twice with unsupplemented (basal) medium to remove traces of serum and growth factors. Basal medium (200 μl) was added to each well and the cells incubated in medium lacking growth factors and serum to starve and synchronize them in the G0 state. After starvation (48 hours for […] and 39 hours for […]) in medium lacking serum and growth factors, the cells were replenished with 200 μl supplemented medium in the absence or presence of drugs at the desired concentrations. […] After a 72-hour incubation period, 25 μl (1 μCi/well) of ^3H-thymidine (Amersham Biosciences) were added to each well. The cells were incubated at 37° C. for 16-18 hours to allow incorporation of ^3H-thymidine into newly synthesized DNA and the cells harvested onto 96-well plates containing bonded glass fiber filters using a cell harvester (Harvester 9600, TOMTEC). […] Controls included medium only, starved cells and cells in complete medium. Drug activity was established by determining the inhibition of ^3H-thymidine incorporation into newly synthesized DNA relative to cells grown in complete medium. […] The final IC50s are means of the 3-4 experiments. In these experiments, the x-axis represents the concentration of the drug being varied. For most of these curves that is zotarolimus alone and in combination with a fixed concentration of dexamethasone. Each graph contains a dexamethasone alone curve and a zotarolimus alone curve. The set of curves in each graph is generated by adding dexamethasone at a fixed concentration (1, 5, 10 or 25 nM) to various concentrations of zotarolimus (0, 0.04, 0.08, 0.8, 4, 8, 40 nM). Each curve represents the dose-response of zotarolimus (whose concentration is given on the x-axis) in the presence of the fixed concentration of dexamethasone given in the legend). […] The concentration eliciting a specific antiproliferative effect was determined using a 4-parameter equation (Equation 1). […]

With `CO[C@H]1C[C@@H]2CC[C@@H](C)[C@@](O)(O2)C(=O)C(=O)N2CCCC[C@H]2C(=O)O[C@H]([C@H](C)C[C@@H]2CC[C@H](n3cnnn3)[C@H](OC)C2)CC(=O)[C@H](C)/C=C(\C)[C@@H](O)[C@@H](OC)C(=O)[C@H](C)C[C@H](C)/C=C/C=C/C=C/1C` [zotarolimus] as the compound, how does the IC50 read?
The IC50 was 6.2 ± 1.2 nM.
